Laboratory results published in patent US9234000B2, “Benzylamine derivatives as inhibitors of plasma kallikrein” (KalVista Pharmaceuticals Limited, priority 2011, dated 2016).
Converted amounts (≈) assume the structure as drawn.

Columns and labels:
physchem = settings: for solubility in PO4 buffer: pH 7
Experimental: Determination of the Kinetic Solubility in Phosphate Buffer
After shaking for approximately 30 seconds the reduction in light transmission of these samples, at 650 nm, was measured (Molecular Devices Spectromax UV/visible spectrophotometer). A second measurement was taken at approximately 30 seconds later.

Human KLK1 = Human KLK1 (Homo sapiens (Human), UniProt P06870); experiment: Determination of the IC50 for KLK1; format: biochemical; settings: Human KLK1, 37° C., substrate H-DVal-Leu-Arg-AFC; Table 12
How it was run: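 Human KLK1 incubated at 37 °C with fluorogenic substrate H-DVal-Leu-Arg-AFC and a range of test compound concentrations. Residual activity was taken as initial reaction rate from absorbance change at 410 nm, and the IC50 derived from it.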

Human plasma kallikrein = Human plasma kallikrein (Homo sapiens (Human), UniProt P03952); experiment: Determination of the IC50 for plasma kallikrein; format: biochemical; settings: fluorogenic substrate H-DPro-Phe-Arg-AFC, 37° C., read-out: IC50 (human PKal)
How it was run: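 Residual activity (initial rate, absorbance at 410 nm) gave the IC50. Reactions at 37° C combined human plasma kallikrein, substrate H-DPro-Phe-Arg-AFC and a range of inhibitor concentrations.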

Sequence of Human KLK1 (P06870 25-262): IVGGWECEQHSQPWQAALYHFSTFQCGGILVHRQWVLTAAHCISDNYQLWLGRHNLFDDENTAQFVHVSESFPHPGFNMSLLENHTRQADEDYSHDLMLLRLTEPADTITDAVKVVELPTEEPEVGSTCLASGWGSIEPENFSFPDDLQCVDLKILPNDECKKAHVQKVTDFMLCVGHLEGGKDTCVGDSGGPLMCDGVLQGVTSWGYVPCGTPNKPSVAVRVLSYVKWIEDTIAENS
Sequence of Human plasma kallikrein (P03952 391-638): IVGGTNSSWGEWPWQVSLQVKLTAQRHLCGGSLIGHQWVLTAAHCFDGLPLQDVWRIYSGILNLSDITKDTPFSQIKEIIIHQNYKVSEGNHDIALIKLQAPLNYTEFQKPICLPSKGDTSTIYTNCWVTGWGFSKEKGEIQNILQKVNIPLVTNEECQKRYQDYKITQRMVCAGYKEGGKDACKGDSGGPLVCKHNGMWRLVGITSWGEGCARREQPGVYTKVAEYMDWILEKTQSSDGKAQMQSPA
Sequence of Human plasma kallikrein (P03952 20-390 partner): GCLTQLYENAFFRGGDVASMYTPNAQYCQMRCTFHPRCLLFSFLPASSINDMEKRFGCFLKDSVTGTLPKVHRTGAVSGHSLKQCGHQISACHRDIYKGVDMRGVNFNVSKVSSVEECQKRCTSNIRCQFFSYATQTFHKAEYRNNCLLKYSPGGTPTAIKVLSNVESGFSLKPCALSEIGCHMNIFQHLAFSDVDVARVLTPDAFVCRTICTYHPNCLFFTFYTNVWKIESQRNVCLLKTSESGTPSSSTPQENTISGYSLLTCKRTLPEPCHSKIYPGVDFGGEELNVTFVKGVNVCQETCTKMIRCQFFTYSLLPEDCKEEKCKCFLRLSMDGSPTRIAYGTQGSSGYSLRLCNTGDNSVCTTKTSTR

Row | SMILES | solubility in PO4 buffer (physchem) | IC50 (Human KLK1) | IC50 (Human plasma kallikrein) | solubility (physchem; pH 7, aqueous buffer, kinetic from dmso stock)
1 | CCOc1ccc(C[C@@H](NCC(=O)O)C(=O)N[C@@H](Cc2ccccc2)C(=O)NCc2ccc(CN)cc2)cc1 [Example 17, [(R)-1-[(S)-1-(4-Aminomethyl-benzylcarbamoyl)-2-phenyl-ethylcarbamoyl]-2-(4-ethoxy-phenyl)-ethylamino]-acetic acid] | > 235 µM | > 10000 nM | 5800 nM | –
2 | CCOc1ccc(C[C@@H](NC(=O)CC)C(=O)N(C)[C@@H](Cc2ccccc2)C(=O)NCc2ccc(CN)cc2)cc1 [Example 26, (S)-N-(4-Aminomethyl-benzyl)-2-{[(R)-3-(4-ethoxy-phenyl)-2-propionylamino-propionyl]-methyl-amino}-3-phenyl-propionamide] | > 235 µM | > 10000 nM | 81 nM | –
3 | CCOc1ccc(C[C@@H](NC)C(=O)N[C@@H](Cc2ccccc2)C(=O)NCc2ccc(CN)cc2)cc1 [Example 27, (R)-N-[(S)-1-(4-Aminomethyl-benzylcarbamoyl)-2-phenyl-ethyl]-3-(4-ethoxy-phenyl)-2-methylamino-propionamide] | > 235 µM | 4000 nM | 1300 nM | –
4 | CCOc1ccc(C[C@@H](NC(=O)CC)C(=O)N(CC)[C@H](Cc2ccccc2)C(=O)NCc2ccc(CN)cc2)cc1 [Example 64, (R)-N-(4-Aminomethyl-benzyl)-2-{[(R)-3-(4-ethoxy-phenyl)-2-propionylamino-propionyl]-ethyl-amino}-3-phenyl-propionamide] | > 235 µM | – | 3400 nM | –
5 | NCc1ccc(CNC(=O)[C@H](Cc2ccccc2)NC(=O)[C@H](N)C(C2CCCCC2)C2CCCCC2)cc1 [Example 52, (R)-2-Amino-N-[(S)-1-(4-aminomethyl-benzylcarbamoyl)-2-phenyl-ethyl]-3,3-dicyclohexyl-propionamide] | > 235 µM | 9500 nM | 860 nM | –
6 | CCOc1ccc(C[C@@H](N)C(=O)N[C@@H](Cc2ccccc2)C(=O)NCc2ccc(CN)c(F)c2)cc1 [Example 6, (R)-2-Amino-N-[(S)-1-(4-aminomethyl-3-fluoro-benzylcarbamoyl)-2-phenyl-ethyl]-3-(4-ethoxy-phenyl)-propionamide] | > 235 µM | > 1000 nM | 1000 nM | –
7 | CN(C(=O)[C@@H](CC1CCCCC1)NCC(=O)O)[C@@H](Cc1ccccc1)C(=O)NCc1ccc(CN)c(F)c1 [Example 34, ((R)-1-{[(S)-1-(4-Aminomethyl-3-fluoro-benzylcarbamoyl)-2-phenyl-ethyl]-methyl-carbamoyl}-2-cyclohexyl-ethylamino)-acetic acid] | > 235 µM | 7700 nM | 1400 nM | –
8 | CCOc1ccc(C[C@H](C(=O)N[C@@H](Cc2ccccc2)C(=O)NCc2ccc(CN)cc2)N(C)C(=O)CC)cc1 [Example 31, (S)-N-(4-Aminomethyl-benzyl)-2-[(R)-3-(4-ethoxy-phenyl)-2-(methyl-propionyl-amino)-propionylamino]-3-phenyl-propionamide] | > 235 µM | 9600 nM | 4300 nM | –
9 | CCOc1ccc(C[C@@H](N)C(=O)N[C@@H](Cc2ccccc2)C(=O)NCc2ccc(CN)cc2)cc1 [Example 5, (R)-2-Amino-N-[(S)-1-(4-aminomethyl-benzylcarbamoyl)-2-phenyl-ethyl]-3-(4-ethoxy-phenyl)-propionamide] | > 235 µM | 160 nM | 460 nM | –
10 | CN[C@H](CC1CCCCC1)C(=O)N[C@@H](Cc1ccc(Cl)c(Cl)c1)C(=O)NCc1ccc(CN)c(F)c1 [Example 41, (R)-N-[(S)-1-(4-Aminomethyl-3-fluoro-benzylcarbamoyl)-2-(3,4-dichloro-phenyl)-ethyl]-3-cyclohexyl-2-methylamino-propionamide] | > 235 µM | 2500 nM | 1300 nM | –
11 | NCc1ccc(CNC(=O)[C@H](Cc2ccccc2)NC(=O)[C@@H](CC2CCCCC2)NCC(=O)O)cc1 [Example 4, {(R)-1-[(S)-1-(4-Aminomethyl-benzylcarbamoyl)-2-phenyl-ethylcarbamoyl]-2-cyclohexyl-ethylamino}-acetic acid] | > 235 µM | > 10000 nM | 230 nM | –
12 | CCCN(C)[C@H](CC1CCCCC1)C(=O)N[C@@H](Cc1ccccc1)C(=O)NCc1ccc(CN)cc1 [Example 45, (R)-N-[(S)-1-(4-Aminomethyl-benzylcarbamoyl)-2-phenyl-ethyl]-3-cyclohexyl-2-(methyl-propyl-amino)-propionamide] | > 235 µM | > 10000 nM | 790 nM | –
13 | CCOc1ccc(C[C@@H](NC(=O)c2ccc(-c3ccccc3)cc2)C(=O)N[C@@H](Cc2ccccc2)C(=O)NCc2ccc(CN)cc2)cc1 [Example 57, Biphenyl-4-carboxylic acid [(R)-1-[(S)-1-(4-aminomethyl-benzylcarbamoyl)-2-phenyl-ethylcarbamoyl]-2-(4-ethoxy-phenyl)-ethyl]-amide] | – | – | 10000 nM | 36 µM (≈ 23.6 µg/mL)
14 | CCOc1ccc(C[C@@H](N)C(=O)N[C@@H](Cc2ccc(Cl)c(Cl)c2)C(=O)NCc2ccc(CN)cc2)cc1 [Example 14, (R)-2-Amino-N-[(S)-1-(4-aminomethyl-benzylcarbamoyl)-2-(3,4-dichloro-phenyl)-ethyl]-3-(4-ethoxy-phenyl)-propionamide] | > 235 µM | 3700 nM | 400 nM | –
15 | NCc1ccc(CNC(=O)[C@H](Cc2ccccc2)NC(=O)[C@@H](CC2CCCCC2)NCCO)cc1 [Example 51, (R)-N-[(S)-1-(4-Aminomethyl-benzylcarbamoyl)-2-phenyl-ethyl]-3-cyclohexyl-2-(2-hydroxy-ethylamino)-propionamide] | > 235 µM | > 10000 nM | 1000 nM | –
16 | CCCN[C@H](Cc1ccc(OCC)cc1)C(=O)N(C)[C@@H](Cc1ccccc1)C(=O)NCc1ccc(CN)cc1 [Example 35, (R)-N-[(S)-1-(4-Aminomethyl-benzylcarbamoyl)-2-phenyl-ethyl]-3-(4-ethoxy-phenyl)-N-methyl-2-propylamino-propionamide] | > 235 µM | > 10000 nM | 2000 nM | –
17 | CN(Cc1ccc(CN)cc1)C(=O)[C@H](Cc1ccccc1)NC(=O)[C@@H](CC1CCCCC1)NCC(=O)O [Example 36, ((R)-1-{(S)-1-[(4-Aminomethyl-benzyl)-methyl-carbamoyl]-2-phenyl-ethylcarbamoyl}-2-cyclohexyl-ethylamino)-acetic acid] | > 235 µM | > 10000 nM | 8200 nM | –
18 | CCC(=O)N[C@H](CC1CCCCC1)C(=O)N[C@@H](Cc1ccccc1)C(=O)NCc1ccc(CN)cc1 [Example 10, (S)-N-(4-Aminomethyl-benzyl)-2-((R)-3-cyclohexyl-2-propionylamino-propionylamino)-3-phenyl-propionamide] | > 235 µM | – | 7200 nM | –
19 | CS(=O)(=O)N[C@H](CC1CCCCC1)C(=O)N[C@@H](Cc1ccccc1)C(=O)NCc1ccc(CN)cc1 [Example 11, (R)-N-[(S)-1-(4-Aminomethyl-benzylcarbamoyl)-2-phenyl-ethyl]-3-cyclohexyl-2-methanesulfonylamino-propionamide] | > 235 µM | – | 1700 nM | –
20 | NCc1ccc(CNC(=O)[C@H](Cc2ccccc2)NC(=O)[C@H](N)CC2CCCCC2)cc1 [Example 8, (R)-2-Amino-N-[(S)-1-(4-aminomethyl-benzylcarbamoyl)-2-phenyl-ethyl]-3-cyclohexyl-propionamide] | > 235 µM | – | – | –
21 | CCOc1ccc(C[C@@H](NS(C)(=O)=O)C(=O)N[C@@H](Cc2ccccc2)C(=O)NCc2ccc(CN)cc2)cc1 [Example 2, (R)—N—[(S)-1-(4-Aminomethyl-benzylcarbamoyl)-2-phenyl-ethyl]-3-(4-ethoxy-phenyl)-2-methanesulfonylamino-propionamide] | > 235 µM | – | 820 nM | –
22 | CCOc1ccc(C[C@@H](NC(=O)CC)C(=O)N[C@H](C(=O)NCc2ccc(CN)cc2)[C@@H](O)c2ccccc2)cc1 [Example 63, (2S,3S)-N-(4-Aminomethyl-benzyl)-2-[(R)-3-(4-ethoxy-phenyl)-2-propionylamino-propionylamino]-3-hydroxy-3-phenyl-propionamide] | > 235 µM | – | 52 nM | –
23 | CCOc1ccc(C[C@@H](NC(=O)CC)C(=O)N[C@@H](Cc2ccccc2)C(=O)NCc2ccc(CN)cc2Cl)cc1 [Example 12, (S)-N-(4-Aminomethyl-2-chloro-benzyl)-2-[(R)-3-(4-ethoxy-phenyl)-2-propionylamino-propionylamino]-3-phenyl-propionamide] | > 235 µM | – | 290 nM | –
24 | CCOc1ccc(C[C@@H](N)C(=O)N[C@H](C(=O)NCc2ccc(CN)cc2)[C@@H](O)c2ccccc2)cc1 [Example 61, (R)-2-Amino-N-[(1S,2S)-1-(4-aminomethyl-benzylcarbamoyl)-2-hydroxy-2-phenyl-ethyl]-3-(4-ethoxy-phenyl)-propionamide] | > 235 µM | – | 220 nM | –
25 | NCc1ccc(CNC(=O)[C@H](Cc2ccccc2)NC(=O)[C@@H](CC2CCCCC2)NCC(N)=O)cc1 [Example 50, (R)-N-[(S)-1-(4-Aminomethyl-benzylcarbamoyl)-2-phenyl-ethyl]-2-(carbamoylmethyl-amino)-3-cyclohexyl-propionamide] | – | 5000 nM | 4300 nM | –
